# How the values were obtained:
# [1] = Cytotoxicity evaluation using viability assay (crystal violet colorimetric method); format: cell-based; conditions: human, HepG2 cells; for viability at 48 h, 0.78 μg: HepG2, sample conc. 0.78 μg
# [2] = system: HepG2 (Hepatocellular carcinoma cells); assay: as above; format: cell-based, human; conditions: Homo sapiens, 48 hours incubation, read-out: inhibition concentration value (IC50)
# From the text: (§1) HepG2 cells (human cell line of a well differentiated hepatocellular carcinoma isolated from a liver biopsy of a person) were obtained from the American Type Culture Collection (ATCC). The chemicals used were: Dimethyl sulfoxide (DMSO), crystal violet and trypan blue dye, purchased from Sigma, St. Louis, Mo., USA; DMEM, RPMI-1640, FBS, HEPES buffer solution, L-glutamine, gentamycin and 0.25% Trypsin-EDTA, purchased from BioWhittaker®, Lonza, Belgium; and Crystal violet stain (1%), composed of 0.5% (w/v) crystal violet and 50% methanol, made up to volume with ddH20 and filtered through a Whatmann No. I filter paper.
# (§2) In the cytotoxicity assay, the cells were propagated in Dulbecco's modified Eagle's medium (DMEM) supplemented with 10% heat-inactivated fetal bovine serum, 1% L-glutamine, HEPES buffer and 50 μg/ml gentamycin. All cells were maintained at 37° C. in a humidified atmosphere with 5% CO2 and were subcultured two times a week.
# (§3) Cell toxicity was monitored by determining the effect of the test samples on cell morphology and cell viability.
# (§4) For cytotoxicity assay, the cells were seeded in a 96-well plate at a cell concentration of 1×10^4 cells per well in 100 μl of growth medium. Fresh medium containing different concentrations of the test sample was added after 24 hours following seeding. Serial two-fold dilutions of the tested chemical compound were added to confluent cell monolayers dispensed into 96-well, flat-bottomed microtiter plates (Falcon, N.J., USA) using a multichannel pipette. The microtiter plates were incubated at 37° C. in a humidified incubator with 5% CO2 for a period of 48 hours. Three wells were used for each concentration of the test sample. Control cells were incubated without test sample and with or without DMSO. The little percentage of DMSO present in the wells (maximal 0.1%) was found not to affect the experiment. After incubation of the cells for 24 hours at 37° C., various concentrations of sample (50, 25, 12.5, 6.25, 3.125 & 1.56 μg) were added, and the incubation was continued for 48 hours and viable cells yield was determined by a colorimetric method.
# (§5) In brief, after the end of the incubation period, media were aspirated and the crystal violet solution (1%) was added to each well for at least 30 minutes. The stain was removed and the plates were rinsed using tap water until all excess stain was removed. Glacial acetic acid (30%) was then added to all wells and mixed thoroughly and then the absorbance of the plates was measured after being gently shaken on a Microplate reader (TECAN, Inc.), using a test wavelength of 490 nm. All results were corrected for background absorbance detected in wells without added stain. Treated samples were compared with the cell control in the absence of the tested compound. All experiments were carried out in triplicate.
# (§6) The cell cytotoxic effect of tested compound was calculated according to the rapid colorimetric assay for cellular growth and survival: application to proliferation and cytotoxicity assay, published by T. Mosmann in the Journal of Immunology Methods, 1983, 65:55-63; and the antiviral activity of medicinal plants of Nilgriris, published by P. Vijayan et al. in the Indian Journal of Medical Research, 2004, 120: 24-29.
# [3] = as above; format: cell-based, human; conditions: human, HepG2 cells, 48 hours; for viability at 48 h, 1.56 μg: HepG2, sample conc. 1.56 μg; for viability at 48 h, 3.125 μg: HepG2, sample conc. 3.125 μg; for viability at 48 h, 6.25 μg: HepG2, sample conc. 6.25 μg; for viability at 48 h, 12.5 μg: HepG2, sample conc. 12.5 μg; for viability at 48 h, 25 μg: HepG2, sample conc. 25 μg; for viability at 48 h, 50 μg: HepG2, sample conc. 50 μg
# From the text: as §1, §2, §3, §4, §5, §6
SMILES,"viability at 48 h, 0.39 μg ([1]; HepG2, sample conc. 0.39 μg)","viability at 48 h, 0.78 μg [1]",IC50 [2],"viability at 48 h, 1.56 μg [3]","viability at 48 h, 3.125 μg [3]","viability at 48 h, 6.25 μg [3]","viability at 48 h, 12.5 μg [3]","viability at 48 h, 25 μg [3]","viability at 48 h, 50 μg [3]",melting point
"O=c1[nH]c(Nc2ccc([N+](=O)[O-])cc2)nc2sc3c(c12)CCCCC3 [Compound III, 2-((4-Nitrophenyl)amino)-6,7,8,9-tetrahydro-3H-cyclohepta[4,5]thieno[2,3-d]pyrimidin-4(5H)-one]",60.8%,47.1%,0.7 µg/mL,36.9%,23.7%,18.5%,14.4%,10.2%,6.32%,–
"O=c1[nH]c(Nc2ccc([N+](=O)[O-])cc2)nc2sc3c(c12)CCCCC3 (hydrate or solvate) [Compound III, 2-((4-Nitrophenyl)amino)-6,7,8,9-tetrahydro-3H-cyclohepta[4,5]thieno[2,3-d]pyrimidin-4(5H)-one]",–,–,–,–,–,–,–,–,–,298 °C
"COc1cccc2c1C(=O)c1c(O)c3c(c(O)c1C2=O)C[C@@](O)(C(=O)CO)C[C@@H]3O[C@H]1C[C@H](N)[C@H](O)[C@H](C)O1 [Doxorubicin, reference compound]",–,57.4%,–,48.2%,30.3%,21%,16.9%,14.3%,10.9%,–
